Data from patent publication US20230372313A1, “METHODS FOR REDUCING GLYCOSPHINGOLIPID CONCENTRATION IN BRAIN TISSUE AND METHODS OF TREATMENT OF NEURODEGENERATIVE DISEASES INVOLVING THE SAME” (GENZYME CORPORATION, priority 2020, published 2023).
Read-outs that look alike come from different tables or passages of the source.

Test: Plasma pharmacokinetics of Compound 2 in PD participants (LC-MS/MS)
Format: in vivo, human
Details: plasma, plasma; for AUC(0-t) / Cmax / Tmax: human, po, 15 mg; for Tmax: read-out: tmax, median
Procedure: Participants were randomised to 3 doses of once-daily orally administered Compound 2 or placebo, in sequential cohort design, and were followed up to 36 weeks (52 weeks for Japanese participants). Participants in the low-dose group received 4 mg of Compound 2 as a once daily oral dose; participants in the mid-dose group received 8 mg of Compound 2 a once daily oral dose; and participants in the high-dose group received 15 mg of Compound 2 a once daily oral dose.
Analyses were based on all available data from participants who enrolled in part 1 of the trial and were randomised to receive either Compound 2 or placebo for up to 52 weeks for Japanese participants and 36 weeks for the ROW population. As part 1 was an exploratory, dose-escalation study, the sample size was not based on a statistical power calculation. Participants included in the primary safety analyses were those who were randomized and received at least one dose of Compound 2 or placebo. A data monitoring committee was responsible for overseeing the safety of patients and the risk/benefit ratio throughout the study. Duration of exposure to Compound 2 was different among the doses, as per the sequential cohort design, with the low- and high-dose cohorts commencing the study first and last, respectively. For pharmacokinetics, plasma parameters were calculated using noncompartmental methods, from plasma Compound 2 concentrations obtained after single dose administration. AUC0-24 and AUC0-48 were calculated using the trapezoidal method over a predefined time period of 24 hours or 48 hours, respectively. CLss/F was calculated using the following equation: CLss/F=Dose/AUCτ, where τ is the dosing interval. For pharmacodynamics, percent reduction of plasma or CSF GL-1 from baseline was calculated as (value−baseline)/baseline×100. Formal statistical testing was not conducted on MDS-UPDRS scale assessments.
The secondary outcome was to evaluate the pharmacokinetic profile of Compound 2 in plasma and cerebrospinal fluid (CSF) over a 4-week period. Plasma pharmacokinetic parameters included maximum plasma concentration (Cmax), time to Cmax (tmax), and area under the plasma concentration versus time curve from 0 to 24 h (AUC0-24). All parameters were assessed at Week 0 and Week 4 after treatment. In addition, AUC0-48 was assessed at Week 0, trough plasma concentration observed just before treatment administration during repeated dosing (Ctrough) was assessed at Weeks 2, 4, and 8 (FIG. 3), and total systemic clearance from plasma at steady state (CLSS/F) was assessed at Week 4. Plasma samples were collected at 1 hour pre-dose and 1, 2, 4, 8, 24, and 48 hours postdose. Compound 2 concentration in plasma was determined using a liquid chromatography tandem mass spectrometry method with a lower limit of quantification of 0.500 ng/mL. CSF samples were collected by lumbar puncture during the screening period (within 14 days prior to randomisation) or on the day of randomisation, and at Week 4, within 2 to 4 hours postdose. Compound 2 concentration in CSF was determined using a liquid chromatography tandem mass spectrometry method with a lower limit of quantification of 0.100 ng/mL.

[1] = Day 1, Japan, High 15 mg oral, n = 3
[2] = Week 4, ROW, High 15 mg once daily oral, n = 4
[3] = Week 4, Japan, High 15 mg once daily oral, n = 2
[4] = Week 4, Japan, High 15 mg vs Low 4 mg
[5] = Week 4, Japan, Low 4 mg once daily oral, n = 1
[6] = Week 4, Japan, Mid 8 mg once daily oral, n = 3
[7] = Week 4, Japan, Mid 8 mg vs Low 4 mg
[8] = Week 4, ROW, High 15 mg vs Low 4 mg
[9] = Week 4, ROW, Low 4 mg once daily oral, n = 4
[10] = Week 4, ROW, Mid 8 mg once daily oral, n = 5
[11] = Week 4, ROW, Mid 8 mg vs Low 4 mg

In the case of `CC(C)(NC(=O)O[C@@H]1CN2CCC1CC2)c1csc(-c2ccc(F)cc2)n1` [Compound 2, (S)-quinuclidin-3-yl (2-(2-(4-fluorophenyl)thiazol-4-yl)propan-2-yl)carbamate], the AUC(0-t) (Day 1, Japan, High 15 mg oral, n = 3, read-out: AUC0-24, Geometric mean) is reported as 977 ng·h/mL, the AUC(0-t) (Day 1, Japan, High 15 mg oral, n = 3, read-out: AUC0-24, mean) is reported as 990 ng·h/mL and the AUC(0-t) (Day 1, Japan, High 15 mg oral, n = 3, read-out: AUC0-48, Geometric mean) is reported as 1570 ng·h/mL. The AUC(0-t) (Day 1, Japan, High 15 mg oral, n = 3, read-out: AUC0-48, mean) was 1590 ng·h/mL, the Cmax (Day 1, Japan, High 15 mg oral, n = 3, read-out: Cmax, mean) was 54.1 ng/mL and the Tmax [1] was 4.1 h. For the same compound, the AUC(0-t) (Day 1, ROW, High 15 mg oral, n = 4, read-out: AUC0-24, Geometric mean) was 868 ng·h/mL, the AUC(0-t) (Day 1, ROW, High 15 mg oral, n = 4, read-out: AUC0-24, mean) was 873 ng·h/mL and the AUC(0-t) (Day 1, ROW, High 15 mg oral, n = 4, read-out: AUC0-48, Geometric mean) was 1440 ng·h/mL. For the same compound, the AUC(0-t) (Day 1, ROW, High 15 mg oral, n = 4, read-out: AUC0-48, mean) was 1450 ng·h/mL, the Cmax (Day 1, ROW, High 15 mg oral, n = 4, read-out: Cmax, Geometric mean) was 47.1 ng/mL and the Cmax (Day 1, ROW, High 15 mg oral, n = 4, read-out: Cmax, mean) was 47.4 ng/mL. For the same compound, the Tmax (Day 1, ROW, High 15 mg oral, n = 4) was 3.94 h, the AUC(0-t) (Week 4, Japan, High 15 mg once daily oral, n = 2, read-out: AUC0-24, Geometric mean) was 3140 ng·h/mL and the AUC(0-t) (Week 4, Japan, High 15 mg once daily oral, n = 2, read-out: AUC0-24, mean) was 3150 ng·h/mL. For the same compound, the Cmax (Week 4, Japan, High 15 mg once daily oral, n = 3, read-out: Cmax, Geometric mean) was 144 ng/mL, the Cmax (Week 4, Japan, High 15 mg once daily oral, n = 3, read-out: Cmax, mean) was 145 ng/mL and the Tmax (Week 4, Japan, High 15 mg once daily oral, n = 3) was 2.1 h. The AUC(0-t) (Week 4, ROW, High 15 mg once daily oral, n = 4, read-out: AUC0-24, Geometric mean) was 2490 ng·h/mL, the AUC(0-t) (Week 4, ROW, High 15 mg once daily oral, n = 4, read-out: AUC0-24, mean) was 2510 ng·h/mL and the Cmax (Week 4, ROW, High 15 mg once daily oral, n = 4, read-out: Cmax, Geometric mean) was 135 ng/mL. For the same compound, the Cmax (Week 4, ROW, High 15 mg once daily oral, n = 4, read-out: Cmax, mean) was 136 ng/mL, the Tmax [2] was 2.89 h and the “Cmax, Geometric mean” value [1] was 53.3 ng/mL. For the same compound, the “CLss/F, Geometric mean” value [3] was 4770 mL/h, the “CLss/F, mean” value [3] was 4780 mL/h and the “AUC0-24, Fold increase vs low dose” value [4] was 2.78 fold. The “CLss/F, Fold increase vs low dose” value [4] was 1.35 fold, the “Cmax (geometric mean), Fold increase vs low-dose” value (“Cmax … Fold increase vs low-dose” for short) [4] was 2.56 fold and the “CLss/F, Geometric mean” value [5] was 3540 mL/h. The “CLss/F, mean” value [5] was 3540 mL/h, the “CLss/F, Geometric mean” value [6] was 4930 mL/h and the “CLss/F, mean” value [6] was 5010 mL/h. The “Cmax, mean” value [6] was 83.7 ng/mL, the “AUC0-24, Fold increase vs low dose” value [7] was 1.43 fold and the “CLss/F, Fold increase vs low dose” value [7] was 1.39 fold. For the same compound, the “Cmax … Fold increase vs low-dose” value [7] was 1.47 fold, the “CLss/F, Geometric mean” value [2] was 6030 mL/h and the “CLss/F, mean” value [2] was 6100 mL/h. For the same compound, the “AUC0-24, Fold increase vs low dose” value [8] was 3.26 fold, the “CLss/F, Fold increase vs low dose” value [8] was 1.15 fold and the “Cmax … Fold increase vs low-dose” value [8] was 3.29 fold. The “CLss/F, Geometric mean” value [9] was 5240 mL/h, the “CLss/F, mean” value [9] was 5270 mL/h and the “CLss/F, Geometric mean” value [10] was 5370 mL/h. The “CLss/F, mean” value [10] was 5450 mL/h, the “AUC0-24, Fold increase vs low dose” value [11] was 1.95 fold and the “CLss/F, Fold increase vs low dose” value [11] was 1.02 fold. The “Cmax … Fold increase vs low-dose” value [11] was 1.85 fold and the Ctrough versus dose (Weeks 2, 4, and 8 (FIG. 3)) was “increased in a dose-proportional manner”.
